The record followed here is patent EP0846114B1, “3-PYRIDYLOXYALKYL HETEROCYCLIC ETHER COMPOUNDS USEFUL IN CONTROLLING CHEMICAL SYNAPTIC TRANSMISSION” (priority 1995, dated 1996).

The subject of test [1] is Neuronal Nicotinic Cholinergic Channels in IMR-32 Cells. Description: 86Rb+ efflux in IMR-32 cells (Protocol B). As to conditions: for IMR-32 maximal response: percent relative to the response elicited by 100 µM (S)-nicotine; for EC50: read-out: IMR-32 EC50, activation of 86Rb+ efflux, IMR-32 human neuroblastoma cells.
Experimental: For the purpose of directly evaluating the ability of test compounds to functionally activate or inhibit certain subtypes of neuronal nicotinic cholinergic channels, an assay to determine ^86Rb^+ efflux in IMR-32 cells was employed (Protocol B below).
Experimental cells were seeded at a density of 500,000 cells/mL into a 24-well tissue culture dish. Plated cells were allowed to proliferate for at least 48 hours before loading with 2 µCi/mL of ^86Rb^+ (35 Ci/mmol) overnight at 37°C.
In test [2] the target is T1, neuronal nicotinic cholinergic channel receptors (Rattus norvegicus, UniProt P09483+P12390).
T1 construct: crude synaptic membrane preparations from whole rat brain; from tissue; host or cells: whole rat brain, crude synaptic membranes
In words: [3H]-cytisine radioligand displacement binding (Protocol A). The method, then:
Binding of [^3H]-cytisine ([^3H]-CYT) to nicotinic receptors was accomplished using crude synaptic membrane preparations from whole rat brain (Pabreza et al., Molecular Pharmacol., 1990, 39:9). Washed membranes were stored at -80°C prior to use. Frozen aliquots were slowly thawed and resuspended in 20 volumes of buffer (containing: 120 mM NaCl, 5 mM KCl, 2 mM MgCl2, 2 mM CaCl2 and 50 mM Tris-Cl, pH 7.4 @4°C). After centrifuging at 20,000x g for 15 minutes, the pellets were resuspended in 30 volumes of buffer. Homogenate (containing 125-150 µg protein) was added to triplicate tubes containing concentrations of test compound and [^3H]-CYT (1.25 nM) in a final volume of 500 µL. Samples were incubated for 60 minutes at 4°C, then rapidly filtered through Whatman GF/B filters presoaked in 0.5% polyethyleneimine using 3 x 4 mL of ice-cold buffer. The filters are counted in 4 mL of Ecolume® (ICN). […] Alternately, data were expressed as a percentage of the total specific binding.

[3] abbreviates: displacement of [3H]-CYT (1.25 nM), crude synaptic membranes from whole rat brain, IC50 converted to Ki (Cheng and Prusoff), read-out: Binding.
Setting [4] is: inhibition of the efflux elicited by 100 µM (S)-nicotine, single dose 1 µM.
[5] abbreviates: inhibition of the efflux elicited by 100 µM (S)-nicotine, single dose 10 µM.

Where a name gives a salt, the structure may show the parent alone. Read-outs that look alike come from different tables or passages of the source.

T1 sequence (P09483 31-630): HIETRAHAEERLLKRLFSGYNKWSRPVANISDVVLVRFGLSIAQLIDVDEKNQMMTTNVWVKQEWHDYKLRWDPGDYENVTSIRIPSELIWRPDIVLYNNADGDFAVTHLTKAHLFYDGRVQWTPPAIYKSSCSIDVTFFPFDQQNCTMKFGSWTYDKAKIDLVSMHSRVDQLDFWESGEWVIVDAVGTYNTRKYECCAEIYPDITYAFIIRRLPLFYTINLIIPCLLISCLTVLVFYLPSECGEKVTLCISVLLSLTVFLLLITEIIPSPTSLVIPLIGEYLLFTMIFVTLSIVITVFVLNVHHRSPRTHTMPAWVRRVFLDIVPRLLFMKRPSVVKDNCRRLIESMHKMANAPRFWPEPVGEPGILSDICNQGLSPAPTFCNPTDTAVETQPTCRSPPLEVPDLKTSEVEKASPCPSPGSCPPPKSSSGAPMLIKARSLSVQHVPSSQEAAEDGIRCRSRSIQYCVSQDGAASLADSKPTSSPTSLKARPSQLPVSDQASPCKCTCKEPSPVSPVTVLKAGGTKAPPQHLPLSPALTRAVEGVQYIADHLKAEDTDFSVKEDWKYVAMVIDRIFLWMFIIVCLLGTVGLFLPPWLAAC
T1 sequence (P12390 25-500): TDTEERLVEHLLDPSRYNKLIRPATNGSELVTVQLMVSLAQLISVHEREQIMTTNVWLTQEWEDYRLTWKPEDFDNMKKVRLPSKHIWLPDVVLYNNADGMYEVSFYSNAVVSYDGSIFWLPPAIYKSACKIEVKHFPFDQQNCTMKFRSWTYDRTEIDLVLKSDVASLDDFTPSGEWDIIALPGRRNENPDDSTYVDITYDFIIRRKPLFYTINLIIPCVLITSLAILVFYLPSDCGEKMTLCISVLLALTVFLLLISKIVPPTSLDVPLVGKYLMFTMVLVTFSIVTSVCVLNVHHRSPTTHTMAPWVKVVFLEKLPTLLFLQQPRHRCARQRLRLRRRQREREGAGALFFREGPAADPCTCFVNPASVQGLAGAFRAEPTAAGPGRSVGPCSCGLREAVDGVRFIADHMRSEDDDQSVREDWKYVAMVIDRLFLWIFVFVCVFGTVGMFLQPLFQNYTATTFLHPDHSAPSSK

As to “5-Ethyl-6-chloro-3-(1-methyl-2-(S)-pyrrolidinylmethoxy)pyridine hydrochloride [Example 47]”, in test [1], the IMR-32 maximal response worked out at 152% and the EC50 stood at 22000 nM. In addition, the Ki in test [2] (setting [3]) stood at 0.065 nM.
`Cl.Clc1ncc(OC[C@@H]2CCN2)cc1Br` [Example 2, 5-Bromo-6-chloro-3-(2-(S)-azetidinylmethoxy)pyridine hydrochloride]: in test [1], the IMR-32 maximal response worked out at 120% and the EC50 was 100 nM.
In the case of `CN1CC[C@H]1COc1cnc(Cl)c(Br)c1.Cl` [Example 3, 5-Bromo-6-chloro-3-(1-methyl-2-(S)-azetidinylmethoxy)pyridine hydrochloride], the “% Inhibition @ 1 µM” value in test [1] is recorded as 55%. In test [2] (setting [3]), the Ki was found to be 0.38 nM.
`CN1CCC[C@H]1COc1cnc(Cl)c(Br)c1.Cl.Cl` [Example 5, 5-Bromo-6-chloro-3-(1-methyl-2-(S)-pyrrolidinylmethoxy)pyridine dihydrochloride]: the “% Inhibition @ 1 µM” value in test [1] (setting [4]) is 12%. Moreover, the “% Inhibition @ 10 µM” value in test [1] (setting [5]) amounted to 22%. Also, the IMR-32 maximal response in test [1] stood at 12%. This molecule also came in with a Ki in test [2] of 0.35 nM.
On to `Cl.Cl.Clc1ncc(OC[C@H]2CCCN2)cc1Br` [Example 7, 5-bromo-6-chloro-3-(2-(R)-pyrrolidinylmethoxy)pyridine dihydrochloride], for which, in test [1], the IMR-32 maximal response came out at 70% and the 50% effective concentration (EC50) came to 4900 nM. The Ki in test [2] worked out at 0.099 nM.
With `CN1CCC[C@@H]1COc1cnc(Cl)c(Br)c1.Cl` [Example 8, 5-bromo-6-chloro-3-(1-methyl-2-(R)-pyrrolidinylmethoxy)pyridine hydrochloride], the “% Inhibition @ 1 µM” value in test [1] (setting [4]) worked out at 28%. The “% Inhibition @ 10 µM” value in test [1] (setting [5]) was found to be 60%. Also, the IMR-32 maximal response in test [1] was found to be 10.6%. The Ki in test [2] turned out to be 13 nM.
Consider `Cl.Clc1cc(OC[C@H]2CCCN2)cnc1Cl` [Example 9, 5,6-Dichloro-3-(2-(R)-pyrrolidinylmethoxy)pyridine hydrochloride], for which, in test [1], the IMR-32 maximal response was found to be 67% and the EC50 was found to be 1600 nM. Also, the Ki in test [2] (setting [3]) stood at 0.03 nM.
As to `CN1CCC[C@@H]1COc1cnc(Cl)c(Cl)c1.Cl` [Example 10, 5,6-Dichloro-3-(1-methyl-2-(R)-pyrrolidinylmethoxy)pyridine hydrochloride], in test [1], the “% Inhibition @ 1 µM” value came to 18%, the “% Inhibition @ 10 µM” value was 90% and the IMR-32 maximal response was determined as 3.3%. In test [2] (setting [3]), the Ki came out at 20 nM.
Consider `Cl.Clc1cc(OC[C@@H]2CCCN2)cnc1Cl` [Example 11, 5,6-Dichloro-3-(2-(S)-pyrrolidinylmethoxy)pyridine hydrochloride], for which, in test [1], the IMR-32 maximal response turned out to be 93% and the 50% effective concentration (EC50) came out at 600 nM. For the same molecule, the Ki in test [2] (setting [3]) was 0.029 nM.
For the molecule `CN1CCC[C@H]1COc1cnc(Cl)c(Cl)c1.Cl` [Example 12, 5,6-Dichloro-3-(1-methyl-2-(S)-pyrrolidinylmethoxy)pyridine hydrochloride], in test [1], the “% Inhibition @ 1 µM” value is listed as 5%, the “% Inhibition @ 10 µM” value came to 8% and the IMR-32 maximal response is on record as 16%. Further, the Ki in test [2] (setting [3]) was 0.11 nM.
Regarding `Cl.Clc1cc(OC[C@@H]2CCN2)cnc1Cl` [Example 15, 5,6-dichloro-3-(2-(S)-azetidinylmethoxy)pyridine hydrochloride], in test [1], the IMR-32 maximal response came to 152% and the EC50 stood at 300 nM.
Turning to `CN1CC[C@H]1COc1cnc(Cl)c(Cl)c1.Cl` [Example 16, 5,6-dichloro-3-(1-methyl-2-(S)-azetidinylmethoxy)pyridine hydrochloride], in test [1], the “% Inhibition @ 1 µM” value was found to be 35%, the IMR-32 maximal response is given as 37% and the concentration giving a half-maximal response (EC50) was determined as 500 nM. In test [2] (setting [3]), the Ki was determined as 0.7 nM.
Regarding `Cl.Clc1cc(OC[C@H]2CCN2)cnc1Cl` [Example 17, 5,6-dichloro-3-(2-(R)-azetidinylmethoxy)pyridine hydrochloride], in test [1], the IMR-32 maximal response was 108% and the half-maximal effective concentration (EC50) is 200 nM. The molecule further gave a Ki in test [2] of 0.06 nM.
Take `CN1CC[C@@H]1COc1cnc(Cl)c(Cl)c1.Cl` [Example 18, 5,6-dichloro-3-(1-methyl-2-(R)-azetidinylmethoxy)pyridine hydrochloride]: in test [1], the “% Inhibition @ 1 µM” value worked out at 0%, the “% Inhibition @ 10 µM” value was 18% and the IMR-32 maximal response was determined as 22.5%. Also, the Ki in test [2] (setting [3]) came to 2.4 nM.
`CCc1cc(OC[C@@H]2CCN2)cnc1Cl.Cl` [Example 45, 5-Ethyl-6-chloro-3-(2-(S)-azetidinylmethoxy)pyridine hydrochloride]: in test [1], the IMR-32 maximal response is on record as 137% and the EC50 stood at 400 nM. Besides, the Ki in test [2] was 0.04 nM.
In test [1], `CCc1cc(OC[C@@H]2CCCN2)cnc1Cl.Cl` [Example 46, 5-Ethyl-6-chloro-3-(2-(S)-pyrrolidinylmethoxy)pyridine hydrochloride] returned an IMR-32 maximal response of 11%. Moreover, the Ki in test [2] (setting [3]) is 0.6 nM.
`CCc1cc(OC[C@H]2CCCN2)cnc1Cl.Cl` [Example 48, 5-Ethyl-6-chloro-3-(2-(R)-pyrrolidinylmethoxy)pyridine hydrochloride]: in test [1], the IMR-32 maximal response was 129% and the EC50 was found to be 56000 nM. Besides, the Ki in test [2] (setting [3]) was 0.027 nM.
The corresponding values for `Cl.N#Cc1cc(OC[C@@H]2CCN2)cnc1Cl` [Example 49, 5-Cyano-6-chloro-3-(2-(S)-azetidinylmethoxy)pyridine hydrochloride] are 158%, 290 nM and 0.097 nM.
Regarding `CN1CC[C@H]1COc1cnc(Cl)c(C#N)c1.Cl` [Example 50, 5-Cyano-6-chloro-3-(1-methyl-2-(S)-azetidinylmethoxy)pyridine hydrochloride], in test [1], the IMR-32 maximal response is given as 35% and the concentration for a half-maximal effect (EC50) turned out to be 10000 nM. Moreover, the Ki in test [2] (setting [3]) is 0.88 nM.
With `NC(=O)c1cc(OC[C@@H]2CCN2)cnc1Cl` [Example 51, hydrochloride], in test [1], the IMR-32 maximal response is given as 64% and the concentration giving a half-maximal response (EC50) was determined as 16000 nM. The Ki in test [2] (setting [3]) turned out to be 0.19 nM.
With `Cc1ncc(OC[C@@H]2CCN2)cc1Br.Cl` [Example 52, 5-bromo-6-methyl-3-(2-(S)-azetidinylmethoxy)pyridine hydrochloride], in test [1], the IMR-32 maximal response is given as 124% and the EC50 was determined as 1600 nM.
